Data on nine compounds can be found in ChEMBL document CHEMBL1125401, “CoMFA analysis of the interactions of antipicornavirus compounds in the binding pocket of human rhinovirus-14” (J Med Chem, 1992).

≈ marks a conversion by molar mass, not a printed value.

The first assay has as its system rhinovirus B14. The experiment in a line: Compound was evaluated for inhibitory effect against human Rhinovirus-14. It counts as functional.
Conditions: not given
Regarding `OCCOCOCc1cc(CCCCCOc2c(Cl)cc(C3=NCCO3)cc2Cl)on1`, the MIC turned out to be 0.09 µM (≈ 0.0426 µg/mL).

Staying with this assay, now noted: Rhinovirus B; read-out: MIC.
Turning to `Cc1cc(CCCCCOc2ccc(C3=NCCO3)cc2)on1`, the MIC stood at 0.51 µM (≈ 0.16 µg/mL).

On to `Cc1cc(-c2nnn(C)n2)cc(C)c1OCCCCCc1cc(COCOCCO)no1`, for which the MIC is 0.06 µM (≈ 0.0267 µg/mL).

For the compound `CCC1COC(c2ccc(OCCCCCCCc3cc(C)no3)cc2)=N1` (stereo not given), the MIC is 0.03 µM (≈ 0.0111 µg/mL).

Consider `Cc1cc(CCCCCOc2ccc(C3=NCCO3)cc2Cl)on1`, for which the MIC came to 2.41 µM (≈ 0.841 µg/mL).

Take `OCCOCOCc1cc(CCCCCOc2c(Cl)cc(C3=NCCO3)cc2Cl)on1`: the MIC turned out to be 0.06 µM (≈ 0.0284 µg/mL).

Regarding `Cc1cc(CCCCCOc2ccc(-c3nc(C)c(C)o3)cc2)on1`, the MIC was 0.14 µM (≈ 0.0477 µg/mL).

In the case of `Cc1cc(CCCCCCCOc2ccc(C3=NC(C)CO3)cc2)on1` (stereo not given), the MIC came to 0.05 µM (≈ 0.0178 µg/mL).

For the compound `Cc1cc(CCCCCCCOc2ccc(C3=NC(C)(C)CO3)cc2)on1`, the MIC was 0.16 µM (≈ 0.0593 µg/mL).

Regarding `Cc1cc(CCCCCOc2c(Cl)cc(C3=NCCO3)cc2Cl)on1` [WIN-54954], the MIC is 1.5 µM (≈ 0.575 µg/mL).
